Structures can show the parent of a compound that is named as a salt.
`CC(C)C[C@H](S)C(=O)NC1(C(=O)N[C@@H](Cc2ccc(-c3ccno3)cc2)C(=O)O)CCCC1` (stereo in doubt) [3-(4-Isoxazole-5-yl-phenyl)-2-{[1-(2-mercapto4-methyl-pentanoylamino)-cyclopentanecarbonyl]-amino}-propionic acid] and `CCC[C@H](S)C(=O)NC1(C(=O)N[C@@H](Cc2ccc(-c3ccno3)cc2)C(=O)O)CCCC1` (stereo in doubt) [3-(4-Isoxazole-5-yl-phenyl)-2-{[1-(2-mercapto-pentanoylamino)-cyclopentanecarbonyl]-amino}-propionic acid] cannot be ordered by melting point: 104 to 110 °C for the first, 95 to 108 °C for the second.

First: CC[C@H](C)[C@H](S)C(=O)NC1(C(=O)NC(Cc2ccc(-c3cncnc3)cc2)C(=O)O)CCCC1 (stereo in doubt) [2-{[1-(2-Mercapto-3-methyl-pentanoylamino)-cyclopentanecarbonyl]-amino}-3-(4-pyrimidin-5-yl-phenyl)-propionic acid]
Second: CC[C@@H](C)[C@H](S)C(=O)NC1(C(=O)NC(Cc2ccc(-c3cncnc3)cc2)C(=O)O)CCCC1 (stereo in doubt) (as salt: hydrochloride) [2-{[1-(2-Mercapto-3-methyl-pentanoylamino)-cyclopentanecarbonyl]-amino}-3-(4-pyrimidin-5-yl-phenyl)-propionic acid hydrochloride]
The melting point of the first is higher: 206 to 208 °C for the first, 170 to 184 °C for the second.

Compared with `CSc1ccc(-c2ccc(C[C@H](NC(=O)C3(NC(=O)[C@@H](S)CC(C)C)CCCC3)C(=O)O)cc2)cc1` (stereo in doubt) [2-{[1-(2-mercapto4-methyl-pentanoylamino)-cyclopentanecarbonyl]-amino}-3-(4′-methylthio-biphenyl-4-yl)-propionic acid], `CC(C)C[C@H](S)C(=O)NC1(C(=O)N[C@@H](Cc2ccc(-c3cccc(F)c3)cc2)C(=O)O)CCCC1` (stereo in doubt) [3-(3′-Fluoro-biphenyl-4-yl)-2-{[1-(2-mercapto-4-methyl-pentanoylamino)-cyclopentanecarbonyl]-amino}-propionic acid] is lower in melting point: 187 to 189 °C for the first, 125 to 128 °C for the second.

First: CCCC(S)C(=O)NC1(C(=O)NC(Cc2c[nH]c3ccccc23)C(=O)O)CCCC1 (stereo not drawn) [Example 13(c), 3-(1H-Indol-3-yl)-2-{[1-(2-mercapto-pentanoylamino)-cyclopentanecarbonyl]-amino}-propionic acid]
Second: CC(C)CC(S)C(=O)NC1(C(=O)NC(Cc2c[nH]c3ccccc23)C(=O)O)CCCC1 (stereo not drawn) [Example 13(b), 3-(1H-Indol-3-yl)-2-{[1-(2-mercapto-4-methyl-pentanoylamino)-cyclopentanecarbonyl]-amino}-propionic acid]
The melting point of the first is lower: 102 to 105 °C for the first, 116 to 118 °C for the second.

First: O=C(O)[C@H](Cc1ccc(-c2ccc(C(F)(F)F)cc2)cc1)NC(=O)C1(NC(=O)[C@@H](S)Cc2ccccc2)CCCC1 (stereo in doubt) [2-{[1-(2-Mercapto-3-phenyl-propionylamino)-cyclopentanecarbonyl]-amino}-3-(4′-trifluoromethyl-biphenyl-4-yl)-propionic acid]
Second: O=C(NC1(C(=O)N[C@@H](Cc2ccc(-c3ccsc3)cc2)C(=O)O)CCCC1)C(S)Cc1ccccc1 (stereo in doubt) [2-{[1-(2-Mercapto-3-phenyl-propionylamino)-cyclopentanecarbonyl]-amino}-3-[4-(thiophen-3-yl)-phenyl]-propionic acid]
The melting point of the first is higher: 222 to 225 °C for the first, 190 to 192 °C for the second.

First: COc1ccc(-c2ccc(C[C@H](NC(=O)C3(NC(=O)[C@@H](S)C(C)C)CCCC3)C(=O)O)cc2)cc1 (stereo in doubt) [2-{[1-(2-Mercapto-3-methyl-butanoylamino)-cyclopentanecarbonyl]-amino}-3-(4′-methoxy-biphenyl-4-yl)-propionic acid]
Second: COc1cccc(-c2ccc(CC(NC(=O)C3(NC(=O)[C@@H](S)C(C)C)CCCC3)C(=O)O)cc2)c1 (stereo in doubt) [2-{[1-(2-Mercapto-3-methyl-butanoylamino)-cyclopentanecarbonyl]-amino}-3-(3′-methoxy-biphenyl-4-yl)-propionic acid]
The melting point of the first is higher: 179 to 181 °C for the first, 159 to 160 °C for the second.

Compared with `CC[C@H](C)C(S)C(=O)NC1(C(=O)N[C@@H](Cc2ccc(-c3ccsc3)cc2)C(=O)O)CCCC1` (stereo in doubt) [2-{[1-(2-Mercapto-3-methyl-pentanoylamino)-cyclopentanecarbonyl]-amino}-3-[4-(thiophen-3-yl)-phenyl]-propionic acid], `CC(C)[C@H](S)C(=O)NC1(C(=O)N[C@@H](Cc2ccc(-c3cccs3)cc2)C(=O)O)CCCC1` (stereo in doubt) [2-{[1-(2-Mercapto-3-methyl-butanoylamino)-cyclopentanecarbonyl]-amino}-3-[4-(thiophen-2-yl)-phenyl]-propionic acid] is higher in melting point: 99 to 101 °C for the first, 179 to 181 °C for the second.

First: CC(C)[C@H](S)C(=O)NC1(C(=O)N[C@@H](Cc2ccc(-c3ccccc3F)cc2)C(=O)O)CCCC1 (stereo in doubt) [3-(2′-Fluoro-biphenyl-4-yl)-2-{[1-(2-mercapto-3-methyl-butanoylamino)-cyclopentanecarbonyl]-amino}-propionic acid]
Second: CC(C)[C@H](S)C(=O)NC1(C(=O)NC(Cc2ccc(-c3ccncc3)cc2)C(=O)O)CCCC1 (stereo partly drawn) [2-{[1-(2-Mercapto-3-methyl-butanoylamino)-cyclopentanecarbonyl]-amino}-3-(4-yl-phenyl)-propionic acid]
The melting point of the first is lower: 171 to 173 °C for the first, 236 to 238 °C for the second.

First: O=C(NC1(C(=O)NC(Cc2ccc(C3CCCCC3)cc2)C(=O)O)CCCC1)C(S)Cc1ccccc1 (stereo not drawn) [3-(4-Cyclohexyl-phenyl)-2-{[1-(2-mercapto-3-phenyl-propionylamino)-cyclopentanecarbonyl]-amino}-propionic acid]
Second: O=C(O)[C@H](Cc1ccc(-c2ccccc2)cc1)NC(=O)C1(NC(=O)[C@@H](S)Cc2ccc3ccccc3c2)CCCC1 (stereo in doubt) [3-Biphenyl-4-yl-2-{[1-(2-mercapto-3-naphthalen-2-yl-propionylamino)-cyclopentanecarbonyl]-amino}-propionic acid]
The melting point of the first is higher: 172 to 175 °C for the first, 166 to 168 °C for the second.

First: CC(C)CC(S)C(=O)NC1(C(=O)NC(Cc2csc3ccccc23)C(=O)O)CCCC1 (stereo not drawn) [Example 13(e), 3-Benzo[b]thiophen-3-yl-2-{[1-(2-mercapto4-methyl-pentanoylamino)-cyclopentanecarbonyl]-amino}-propionic acid]
Second: COc1cc(C[C@H](NC(=O)C2(NC(=O)[C@@H](S)C(C)C)CCCC2)C(=O)O)ccc1-c1ccccc1 (stereo in doubt) [2-{[1-(2-Mercapto-3-methylbutanoylamino)-cyclopentanecarbonyl]-amino}-3-(2-methoxybiphenyl-4-yl)-propionic acid]
The melting point of the first is higher: 135 to 137 °C for the first, 121 to 123 °C for the second.

`CC(C)[C@H](S)C(=O)NC1(C(=O)N[C@@H](Cc2ccc3c(c2)CCCC3)C(=O)O)CCCC1` (stereo in doubt) [2-{[1-(2-Mercapto-3-methyl-butanoylamino)-cyclopentanecarbonyl]-amino}-3-(5,6,7,8-tetrahydro-naphthalen-2-yl)-propionic acid] and `CC(=O)N1CCCC(c2ccc(C[C@H](NC(=O)C3(NC(=O)[C@@H](S)C(C)C)CCCC3)C(=O)O)cc2)C1` (stereo in doubt) [3-[4-(1-Acetyl-piperidin-3-yl)-phenyl]-2-{[1-(2-mercapto-3-methyl-butanoylamino)-cyclopentanecarbonyl]-amino}-propionic acid] fall in the same range of melting point: 190 to 192 °C for the first, 190 to 192 °C for the second.

Compared with `Cc1c(CC(NC(=O)C2(NC(=O)C(S)CC(C)C)CCCC2)C(=O)O)oc2c(F)c(F)c(F)c(F)c12` (stereo not drawn) [Example 13(a), 2-{[1-(2-Mercapto-4-methyl-pentanoylamino)-cyclopentanecarbonyl]-amino}-3-(4,5,6,7-tetrafluoro-3-methyl-benzofuran-2-yl)-propionic acid], `COc1ccccc1-c1ccc(C[C@H](NC(=O)C2(NC(=O)[C@@H](S)C(C)C)CCCC2)C(=O)O)cc1OC` (stereo in doubt) [3-(2,2′-Dimethoxy-biphenyl-4-yl)-2-{[1-(2-mercapto-3-methyl-butanoylamino)-cyclopentanecarbonyl]-amino}-propionic acid] is higher in melting point: 115 to 117 °C for the first, 173 to 175 °C for the second.

First: CC(C)[C@H](S)C(=O)NC1(C(=O)N[C@@H](Cc2ccc(-c3ccccc3)cc2)C(=O)O)CCc2ccccc21 (stereo in doubt) [3-Biphenyl-4-yl-2-{[1-(2-mercapto-3-methyl-butyrylamino)-indane-1-carbonyl]-amino}-propionic acid]
Second: CC(C)[C@H](S)C(=O)NC1(C(=O)N[C@@H](Cc2ccc(-c3ccccc3)cc2)C(=O)O)CCOCC1 (stereo in doubt) [3-Biphenyl-4-yl-2-{[4-(2-mercapto-3-methyl-butanoylamino)-tetrahydro-pyran-4-carbonyl]-amino}-propionic acid]
The melting point of the first is lower: 115 to 120 °C for the first, 161 to 163 °C for the second.

First: CC(C)[C@H](S)C(=O)NC1(C(=O)N[C@@H](Cc2ccc(-c3ccc(C(F)(F)F)cc3)cc2)C(=O)O)CCCC1 (stereo in doubt) [2-{[1-(2-Mercapto-3-methylbutanoylamino)-cyclopentanecarbonyl]-amino}-3-(4′-trifluoromethyl-biphenyl-4-yl)-propionic acid]
Second: CC(C)[C@H](S)C(=O)NC1(C(=O)N[C@@H](Cc2cccc(-c3ccccc3)c2)C(=O)O)CCCC1 (stereo in doubt) [3-Biphenyl-3-yl-2-{[1-(2-mercapto-3-methylbutanoylamino)-cyclopentanecarbonyl]-amino}-propionic acid]
The melting point of the first is higher: 235 to 236 °C for the first, 75 to 78 °C for the second.

Compared with `CC(C)[C@H](S)C(=O)NC1(C(=O)N[C@@H](CC2CCC(C3CCCCC3)CC2)C(=O)O)CCCC1` (stereo in doubt) [3-Bicyclohexyl-4-yl-2-{[1-(2-mercapto-3-methyl-butanoylamino)-cyclopentanecarbonyl]-amino}-propionic acid], `O=C(O)[C@H](Cc1ccc(-c2ccccc2)cc1)NC(=O)C1(NC(=O)[C@@H](S)Cc2ccc(-c3ccccc3)cc2)CCCC1` is lower in melting point: 209 to 210 °C for the first, 187 to 189 °C for the second.
